Consider four substances from US20140357563A1, “Compositions and Methods for the Generation of Activated Protein C and Methods of Use Thereof” (The Children's Hospital of Philadelphia, priority 2011, published 2014).

In series [1] the test system is plasma aPC. Nature of the series: In vivo aPC generation measured in mouse plasma. To be noted: for effect of heparinoid on aPC generation after histones: histones 50 mg/kg. The procedure: Generation of aPC in vivo was assayed in plasma of mice as described (Kowalska et al. (2007) Blood 110:1903-1905). Mice were injected into the jugular vein. After 10 minutes, blood was drawn into sodium citrate/benzamidine (final concentration, 5 mM/50 mM, respectively), centrifuged for 10 minutes at 4500 g at 4° C., and plasma was frozen. Plasma aPC levels were subsequently measured by capture ELISA using antimouse aPC antibody and chromogenic substrate Spectrozyme® PCa (American Diagnostica) (Li et al. (2005) J. Thromb. Haemost., 3:1351-1359).
In vivo aPC generation was assayed in plasma of mice generally as described above. […] After 10 minutes, blood was drawn into sodium citrate/benzamidine (final concentration 5 mM/50 mM, respectively), centrifuged for 10 minutes at 5,000 rpm at 4° C. and plasma frozen. […] Some animals were pre-injected with UFH or ODSH 10 minutes before injection of histones. Plasma aPC levels were measured by capture ELISA (Li et al. (2005) J. Thromb. Haemost., 3:1351-1359) using an anti-mouse aPC antibody and chromogenic substrate Spectrozyme® PCa (American Diagnostica; Stamford, Conn.).

The test system of series [2] is thrombin (IIa)/thrombomodulin (TM) complex, TM+CS. Nature of the series: In vitro aPC generation assay in solution, IIa/TM complex with TM containing chondroitin sulfate side chains (TM+CS, TMCS). The format is biochemical, rabbit or human. To be noted: for effect of heparinoid on aPC generation with high doses of PF4 and histones: conditions simulating late sepsis; for effect of heparinoid on aPC generation at low levels of histones: histones 0-10 μg/ml, heparinoid 2, 5 or 10 μg/ml; for effect of heparinoid on aPC generation at low levels of histones / effect of heparinoid on aPC generation at higher levels of histones: FIG. 7; for effect of heparinoid on aPC generation at higher levels of histones: histones >10 μg/ml; for increase of aPC generation by PF4 in absence of histones: TMCS 0.5 nM, FIG. 6A. The procedure:
(§1) Generation of aPC was assayed in 96-well plates as described previously (Slungaard et al. (1994) J. Biol. Chem., 269:25549-25556; Slungaard et al. (1993) J. Clin. Invest., 91:1721-1730). Briefly, thrombomodulin (TM) was mixed with various amounts of PF4 and/or heparin for 10 minutes in assay buffer (final concentration, 20 mM Tris, 100 mM NaCl, 1 mM CaCl2, 0.1% BSA, pH 7.5). Protein C (PC) was added for an additional 10 minutes followed by addition of thrombin (IIa) at a final concentration of either 0.2 or 2 nM and 15 minutes of incubation. All incubations were done at 37° C. Final concentrations of TM and PC were 0.5 nM and 500 nM, respectively.
Generation of aPC was assayed in 96-well plates generally as described above. Briefly, rabbit or human sTMCS or sTM−CS, was mixed with various amounts of histones, PF4 and/or heparinoid for 10 minutes in assay buffer (final concentration, 20 mM Tris, 100 mM NaCl, 1 mM CaCl2, 0.1% BSA, pH 7.5). Final concentrations of TMs were 0.5-40 nM. PC (final concentration, 500 nM) was added for an additional 10 minutes followed by addition of IIa at a final concentration of 0.2 or 2 nM and then incubated for 15 minutes. All incubations were done at 37° C. The reaction was quenched with 1 mM EDTA and 100 nM hirudin. Concentrations of aPC formed in the quenched samples were inferred from initial rate measurements after the addition of 0.5 mM S2366. Initial rates of chromogenic substrate cleavage were determined by measuring absorbance at 405 nm using a ThermoMax™ Microtiter Vmax® plate reader (Molecular Devices; Sunnyvale, Calif.).

Series [3] relates to mice. The experiment in a line: Histone-induced lethality in mice. Particulars: heparinoid 50 mg/kg, histones 75 mg/kg, WT mice. It counts as in vivo, mouse.
The test system of series [4] is antithrombin. Particulars: Fryer et al. (1997); cited from earlier work.
Series [5] is described as follows: aPTT in mouse plasma after injection of heparinoids with or without histones. The format is in vivo. To be noted: for severe prolongation of aPTT in presence of high (sub-lethal and lethal) concentrations of histones: heparinoid 50 mg/kg 10 minutes before histones, WT mice, FIG. 9B. The procedure: Blood was collected from cut tails 20 minutes after injection of heparinoids and aPTT measured in plasma. FIG. 9A: WT mice were injected with control buffer (at 0 mg/kg heparanoid concentrations) or UFH (dark squares) or ODSH (open triangles) at the concentrations indicated. FIG. 9B: WT mice were injected with control buffer (open circles) or 50 mg/kg of either UFH (black square) or ODSH (gray triangles) 10 minutes before injection of increasing concentrations of histones. N=5 mice per data point. Mean±1 SD are shown.

Series [6] deals with thrombin (IIa)/thrombomodulin (TM) complex. Nature of the series: In vitro aPC assay in solution, on human TM expressing HEK293 and on primary endothelial cells. It counts as cell-based. The procedure: as §1
To measure aPC formation, HEK-K293 cells stably expressing human TM on their surface cells were allowed to adhere overnight onto 24-well plates (5×10^5 cells/well) in DMEM/F12 media containing 10% FBS (Feistritzer et al. (2006) J. Biol. Chem., 281:20077-20084). Cells were washed twice with DMEM/F12 media followed by Dulbecco PBS. Various concentrations of PF4 or protamine sulfate (PRT) were incubated with cells for 10 minutes at 37° C. followed by the addition of PC and IIa, as described above. After incubation for 45 minutes, aliquots of the reaction mixture were transferred to 96-well plates and quenched by the addition of 1 mM EDTA and 100 nM hirudin. Generation of aPC was measured after the addition of 0.5 mM […] and determination of the initial rate of chromogenic substrate cleavage from absorbance measurements at 405 nm on a Thermomax™ Microtiter Vmax® plate reader (Molecular Devices).

[7] abbreviates: WT mice, heparinoid 50 mg/kg, FIG. 8.

“Also recorded” adds a separate entry of the source.

On to 2-O, 3-O desulfated heparin [ODSH], for which the “effect of heparinoid on aPC generation after histones” value in series [1] (setting [7]) was “suppressed detectable aPC generation”. In addition, in series [1] (heparinoid 50 mg/kg, histones 75 mg/kg, WT mice, FIG. 8), the “aPC levels in mice pretreated with heparinoid” value is reported as “aPC levels were raised”. Moreover, in series [2], the “effect of heparinoid on aPC generation with high doses of PF4 and histones” value is recorded as “enhanced aPC generation”; the “effect of heparinoid on aPC generation at low levels of histones” value is on record as “inhibited aPC generation”; the “effect of heparinoid on aPC generation at higher levels of histones” value is “restored high levels of aPC generation”. Besides, the “effect of heparinoid on histone lethality” value in series [3] is recorded as “prevent these deaths”. The “antithrombin activity, fold less” value in series [4] is around 60 fold. Moreover, the “severe prolongation of aPTT in presence of high (sub-lethal and lethal) concentrations of histones” value in series [5] is “reversed”. Further, the “dose required to markedly prolong the aPTT” value in series [5] (non-histone treated mice, FIG. 9A) is reported as “the same as needed to reverse histone lethality”.
Consider heparin, for which, in series [1] (setting [7]), the “effect of heparinoid on aPC generation after histones” value is recorded as “suppressed detectable aPC generation”. The “effect of heparin on aPC generation at low concentrations of PF4” value in series [6] (PF4 12.5 μg/ml, FIG. 1B) is on record as “decreases aPC generation”. For the same substance, in series [6] (PF4 400 μg/ml, FIG. 1B), the “effect of heparin on aPC generation at an excess of PF4” value was “shifts the curve back to the optimal PF4 concentration”. Also, the “effect of heparin on aPC generation at lower than optimal protamine sulfate concentration” value in series [6] (PRT 1 μg/ml, FIG. 1D) was “only decreases aPC generation”. In addition, the “effect of heparin on aPC generation at higher concentrations of PRT” value in series [6] (PRT 20 μg/ml, FIG. 1D) is “a peak and then a decrease in aPC”. Besides, in series [6] (absence or presence of PF4), the “effect of added heparin on histone curve for aPC generation” value is recorded as “shifted the curve for aPC generation to the right”. Besides, the “effect of heparin in absence of the GLA-domain of Protein C” value in series [2] (Gla-domainless Protein C, TM+CS, FIG. 3E) was “did not have any effect”. In addition, the “effect of heparin on histones/PF4 mediated aPC generation” value in series [2] (TM+CS, PF4 50 μg/ml, histones 75 μg/ml, FIGS. 3B and 3C) was “first enhances aPC generation before a decrease in aPC generation”. In series [2] (UFH 5 μg/ml, PF4 50 μg/ml, FIG. 6C), the “effect of UFH on peak aPC generation from histone plus PF4” value is “shifted to the right”. Moreover, in series [2], the “effect of heparinoid on aPC generation with high doses of PF4 and histones” value was “enhanced aPC generation”; the “effect of heparinoid on aPC generation at low levels of histones” value is “inhibited aPC generation”; the “effect of heparinoid on aPC generation at higher levels of histones” value is recorded as “restored high levels of aPC generation”. Further, the “effect of heparin on aPC generation at below peak concentration of histones” value in series [2] (histones 3 μg/ml, TM+CS, FIG. 2F) is reported as “only decreased aPC generation”. The “heparin concentration of optimal effect on aPC generation” value in series [2] (histones present in excess (75 μg/ml), TM+CS, FIGS. 2E and 2F) turned out to be 5 μg per ml. For the same substance, the “effect of heparinoid on histone lethality” value in series [3] was “prevent these deaths”. Besides, in series [5] (concentrations 10 and 100-times lower than needed to reverse histone lethality, FIG. 9A), the “effect on aPTT in mice not exposed to histones” value is listed as “marked prolongation of aPTT”. Also, the “severe prolongation of aPTT in presence of high (sub-lethal and lethal) concentrations of histones” value in series [5] is recorded as “not by the UFH”.
Turning to platelet factor 4 [PF4], in series [1] (PF4 knockout mice, PF4 5 mg/kg with IIa and histones, FIG. 4, 5 mg/kg), the “effect of concurrently injected PF4 on plasma aPC” value is listed as “further increases the generation of aPC in plasma; also recorded: higher aPC levels”. In addition, the “PF4 concentration at peak of bell-shape curve of aPC generation” value in series [6] (FIG. 1A) is “around 50 μg/ml”. Further, the “maximal increase of aPC generation” value in series [6] (at peak of biphasic curve) was around 6 times. For the same substance, the “PF4 concentration at peak of biphasic curve of aPC generation” value in series [6] (in solution, human TM expressing HEK293, primary endothelial cells) is “around 25 μg/ml”. Besides, the “potency on aPC activity compared with histones” value in series [2] (FIGS. 2C and 2D) is reported as “more potent than histones”. Moreover, the “increase of aPC generation by PF4 in absence of histones” value in series [2] (PF4 3 μg/ml) was above 3 fold; in series [2] (PF4 25 μg/ml), “around 7 fold”.
Turning to protamine sulfate [PRT], the “shape of aPC generation versus protamine sulfate concentration” value in series [6] (FIG. 1C) is “bell-shape curve”.
